Measurements as given in patent publication US20120065123A1, “Synthetic Antibodies” (priority 2009, published 2012).
Where two headings read alike, the source gives them in different places. Each block holds one substance with its values, some of them ahead of it. Where no end group is shown, it is not given here. The star is where a group is joined. StBu = CC(C)(C)S*

Tests used:
Format in all cases: binding
Transferrin [1] = target: T1, Transferrin (Homo sapiens, UniProt P02787); experiment: Peptide microarray ranking, labeled transferrin with E. coli lysate competitor; conditions: for Rank -- prewash: array with organic prewash; for Rank - non-prewash: array without organic prewash
T1 sequence (P02787 20-698): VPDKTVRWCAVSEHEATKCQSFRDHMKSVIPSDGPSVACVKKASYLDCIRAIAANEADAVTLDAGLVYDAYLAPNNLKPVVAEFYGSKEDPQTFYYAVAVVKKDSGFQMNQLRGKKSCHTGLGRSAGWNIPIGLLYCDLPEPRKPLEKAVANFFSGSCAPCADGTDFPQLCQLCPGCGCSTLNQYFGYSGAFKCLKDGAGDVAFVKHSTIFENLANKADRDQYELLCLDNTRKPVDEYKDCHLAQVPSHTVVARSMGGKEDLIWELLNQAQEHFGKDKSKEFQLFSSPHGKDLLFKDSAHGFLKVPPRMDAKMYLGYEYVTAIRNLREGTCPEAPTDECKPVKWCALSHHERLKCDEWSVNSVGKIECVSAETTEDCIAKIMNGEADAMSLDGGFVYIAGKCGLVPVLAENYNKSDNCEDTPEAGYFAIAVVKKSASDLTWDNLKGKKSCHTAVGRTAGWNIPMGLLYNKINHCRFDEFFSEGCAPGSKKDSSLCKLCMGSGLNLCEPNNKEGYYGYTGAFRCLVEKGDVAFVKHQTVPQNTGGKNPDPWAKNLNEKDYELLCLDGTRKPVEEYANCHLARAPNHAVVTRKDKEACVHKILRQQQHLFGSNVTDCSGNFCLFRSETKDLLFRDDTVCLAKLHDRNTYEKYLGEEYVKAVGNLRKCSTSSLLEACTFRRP
Method: Several polypeptides were identified as candidate affinity elements for synbodies against an arbitrarily chosen protein target, transferrin, by incubating transferrin on the polypeptide microarray in the presence of E. coli lysate competitor. Transferrin was randomly direct-labeled at free amines with Alexa™ 555, and E. coli lysate was randomly direct-labeled at free amines with Alexa™ 647. Three replicate arrays were passivized by applying a mixture of BSA and mercaptohexanol for one hour. The arrays were blocked with unlabelled E. coli lysate for one hour, then washed three times with TBST (0.05% Tween) followed by three times with water. A mixture of labeled transferrin and labeled E. coli lysate was applied to the three replicate arrays and incubated for three hours. The arrays were again washed three times with TBST (0.05% Tween) followed by three times with water, and scanned at 555 nm and 647 nm using an array reader. Polypeptides were ranked as candidates for inclusion as affinity elements of synbodies by computing a score for each polypeptide equal to the mean raw 555 nm intensity over the six replicate features, squared, divided by the mean raw 647 nm intensity over the six replicate features. This simple scoring function tends to favor candidate polypeptides that bind at least moderate affinity, since otherwise the 555 nm intensity would be relatively lower, and that are relatively specific, since otherwise the 647 nm intensity would be relatively higher and contribute to a relatively lower score. Many variations of this ranking and identification process can be used, such as, by way of non-limiting examples, two-color comparisons against other competitors; comparisons with data taken in separate experiments with respect to other targets; and use of scoring functions taking into account other factors, employing other functional relationships, and/or involving statistical analysis and/or preprocessing of data and/or correcting for background fluorescence and/or other factors affecting the accuracy of the measured intensities. Ten polypeptides (Table 1) were identified for further evaluation for use as affinity elements in synbodies by choosing the polypeptides having the highest score (one polypeptide was rejected as difficult to synthesize, so the polypeptides chosen were ten of those having the eleven highest scores).
After preparation of the array in accordance with the methods previously described in Example 2, the array was washed one time for five minutes in 7.33% acetonitrile, 37% isopropanol, 0.55% trifluoroacetic acid, and 55% water. Alexa 555 labeled target protein transferrin was applied, together with Alexa 647 labeled E. coli lysate competitor, to the prewashed array and to an identical array without organic prewash. […] 5,010 on the array without organic prewash, but ranked no. 9601 on the prewashed array. Conversely, peptide TRF-21, shown by SPR analysis to be a relatively strong binder of transferrin, rose in rank from 84 on the non-prewashed array to rank no. 5 on the prewashed array.

Transferrin [2] = target: T1, Transferrin; experiment: SPR solution phase KD of candidate affinity elements, transferrin immobilized (Biacore T100); conditions: steady-state response, 25° C., PBST
Method: Transferrin 25 μg/ml in immobilization buffer selected for correct pH was then applied 302 at a flow rate of 5 to 10 μl/min for a contact time of about 5 to 10 minutes, allowing the amine functionality on the transferrin 308 to displace the activated NHS ester and bond to the surface via an amide bond. Finally, ethylene diamine (1M ethylene diamine-HCl at pH 8.5) was applied 304 at a flow rate of 5 to 10 μl/min for a contact time of about 6 to 7 minutes to deactivate any remaining reactive groups on the dextran chip surface. Flow rates and contact times are adjusted as necessary to provide the surface concentration of target desired for the intended application, and may vary by target. In general, for evaluating whether binding occurs, it is preferable to immobilize a relatively large quantity of target, and higher flow rates and/or longer contact times may be used. For determining kinetics, it is preferable to limit the amount of target immobilized so as to minimize rebinding and avidity effects, and lower flow rates and/or contact times may be used.
Candidate affinity elements for the transferrin synbody TRF19, TRF21, TRF23, TRF24, TRF25, and TRF26 were individually evaluated for solution phase KD with respect to transferrin by SPR analysis. Because the off rates for these polypeptides were very high, KD values were estimated by measuring steady-state response for at least five concentrations in a two-fold dilution series, each concentration tested in duplicate. For each experiment, response data were processed using a reference surface to correct for bulk refractive index changes and any non-specific binding. Data were also double referenced using responses from blank running buffer injections. Each experiment was conducted at 25° C. using PBST (0.01M Phosphate Buffered Saline, 0.138M NaCl, 0.0027M KCl, 0.05% surfactant Tween20, pH 7.4) as the running buffer on a Biacore T100 instrument. Analytes were injected for 60 s at a flow rate of 30 μl/min. The antigen surfaces were regenerated with 30 s consecutive pulses of NaOH/NaCl (50 mM NaOH in 1M NaCl) and Glycine (10 mM glycine-HCl, pH 2.5).

[3] = target: Tumor Necrosis Factor-alpha (TNF-α) (Homo sapiens, UniProt P01375); experiment: Chromatographic affinity screening on protein-coupled pipette tips with MALDI readout; conditions: 500 nM each synbody in E. Coli Lysate
Sequence of Tumor Necrosis Factor-alpha (TNF-α) (P01375 77-233 limits assumed, species assumed): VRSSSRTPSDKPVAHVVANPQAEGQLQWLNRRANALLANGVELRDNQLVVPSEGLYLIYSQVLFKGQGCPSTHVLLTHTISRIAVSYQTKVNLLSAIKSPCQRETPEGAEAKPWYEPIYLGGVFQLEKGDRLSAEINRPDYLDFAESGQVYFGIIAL
Method: The target proteins, Transferrin (TRF) and Tumor Necrosis Factor-alpha (TNF-α), were each covalently attached to pipette tips (one protein per pipette tip) containing carboxymethyl dextran matrix (Intrinsic Bioprobes, Tempe, Ariz.) using standard amine coupling chemistry. The unmodified tips were first washed with 0.5 M HCl followed by acetone. Each tip was activated using a 50 mg/mL solution of […] (CDI) in N-methyl-pyrolidone (NMP). Each tip was washed with NMP to remove excess CDI. Each protein was prepared as a 50 μg/mL solution in 100 mM sodium acetate pH 5.0 and cycled through a CDI activated tip for 30 minutes. Un-reacted CDI in the tip was then quenched with the addition of 1.5 M ethanolamine pH 8.5 and then washed extensively with HBS-N buffer. The protein-coupled tips were then stored in HBS-N buffer at 4° C. Negative control tips were prepared in the same manner except that no protein was added to the sodium acetate solution during the protein coupling step.
A library of 14 candidate synbodies (Table 9) was prepared by making 12 μM stock solutions in 1× phosphate buffered saline (PBS) of each HPLC purified synbody and […] of each stock solution was added to 600 μL of E. Coli Lysate that had been treated with a protease inhibitor. Thus the final concentration of each synbody was 500 nM.
A negative control pipette tip (blank tip), a TRF tip, and a TNF-α tip, were washed with 0.1% sodium dodecyl sulfate (SDS) to remove any non-covalently bound protein and then washed with HBS buffer. The tips were then incubated for 15 minutes in 150 μL of the synbody library. Each tip was then washed 5 times in 150 μL of HBS-N. This step was then repeated and each tip was washed 5 times in 150 μL of 0.25 M NaCl. Each tip was then washed 5 times in 150 μL of Milli-Q water and this step was repeated. […]
Each elution sample was spotted onto a MALDI plate and analyzed in reflectron mode on a Bruker Daltonics UltraFlex III TOF/TOF MALDI Mass Spectrometer.

TNF-α = TNF-α (Homo sapiens, UniProt P01375); experiment: SPR of TNF1 lead and mutant peptides on captured TNF-α (Biacore A100); conditions: for Binding ΔG (observed): calculated from dissociation constants; for Predicted Binding ΔG: sum of component contributions, energetic additivity
Sequence of TNF-α (P01375 77-233 limits assumed, species assumed): as above
Excerpt: Scanning Mutagenesis of the TNF1 Lead Peptide. After lead identification, the next step in the AMPLI algorithm is characterization of point mutations in the lead heteropolymer. Using short peptides makes it chemically feasible to synthesize a significant fraction of the point-mutant space, which can then be screened for enhanced point mutations. For example, all possible point mutations in the 17 randomized positions using all 20 natural amino acids could be synthesized and screened within a single 384-well plate (323 total point-mutants). However, libraries containing all 20 natural amino acids are not required for affinity optimization of protein-protein interactions. A library of TNF1 point-mutants containing all substitutions of the amino acid set {Y, A, D, S, K, N, V, W} in each of the 17 randomized positions (132 unique point-mutants) was synthesized. Tyrosine (Y), alanine (A), aspartic acid (D) and serine (S) were selected because of their effectiveness in producing high affinity interactions when substituted into the complementary-determining regions (CDRs) of synthetic antibodies (Felouse, Proceedings of the National Academy of Sciences 101(34):12467, 2004), lysine (K) was selected to balance the charge in the substitution set, asparagine (N), valine (V) and tryptophan (W) were selected to span the hydropathicity range (Kyte J & Doolittle R F, Journal of Molecular Biology 157(1):105-132, 1982). […] This concentration was used to increase the high-end dynamic range for quantifying enhancing point mutations at the expense of low-end dynamic range for quantifying detrimental point mutations.
Point-mutant libraries were prepared in 96-well stock plates From the stock plate, peptides were diluted to 50 μM concentration in Biacore HBS-EP buffer (GE Healthcare, Piscataway, N.J.) containing 1 mg/ml carboxymethyl-dextran (Sigma-Aldrich, St. Louis, Mo.) to reduce non-specific binding to the CM-5 SPR chip surface. TNF-α was captured on a CM-5 chip surface at different capture levels on spots 1, 2, 4, and 5 across all four flow cells corresponding to a 40-200 RU range of predicted Rmax binding responses. Spot 3 contained only immobilized neutravidin and served as a reference spot.
Using the prepared 96-well plates and Biacore A100 SPR instrument, four peptides were flowed separately, in parallel, through the four flow cells over all 4 TNF-α spots and the neutravidin reference spot, with a 60 second association phase and 300 second dissociation phase. SPR sensorgrams were recorded for each peptide response with all 4 TNF-α spots and the neutravidin reference spot across the four flow cells on the SPR chip. Surface regeneration was performed after every 12 injections in each flow cell with Biacore Glycine 2.5 regeneration solution (GE Healthcare, Piscataway, N.J.). Point-mutant reference subtracted, peptide molecular weight adjusted, responses at the late binding region of the sensorgram (a few seconds before dissociation) were compared to the response of the TNF1 lead
Purified point-mutant affinities were measured on the Biacore A100 using SPR equilibrium binding response across a series of peptide concentrations on an SPR chip with TNF-α captured as described above.
These sequences were synthesized and purified using standard solid-phase FMOC synthesis and HPLC purification.

Transferrin [4] = target: T1, Transferrin; experiment: SPR steady state affinity of mRNA display clones (Biacore T100); conditions: for Kd: steady state affinity model
Method: Five clones (see Table 15) were selected, synthesized and purified by HPLC for characterization by surface plasmon resonance (SPR) (T 100 instrument from Biacore). Transferrin was immobilized using standard NHS/EDC immobilization chemistry according to the methods described in Frostell-Karlsson, A., Remaeus, A., Andersson, K., Borg, P., Hamalainen, M., and Karlsson, R. (2000) J. Med. Chem. 43, resulting in 9758 RU of immobilized protein. HPLC purified peptides were injected over the surface and sensograms were recorded at multiple concentrations (32, 16, 8, 4, 2, 1, 0.5, 0.25, 0.125, and 0.0625 μM). Affinity plots were generated for each peptide and fit using a steady state affinity model.

[5] = SPR equilibrium binding response, read-out: Kd (observed)
[6] = energetic additivity of component mutations, read-out: Predicted Kd

- Rank -- prewash (Transferrin [1]): 603
- Rank - non-prewash (Transferrin [1]): 736
- Kd (Transferrin [2]): ~60 µM
Substance: APYAPQQIHYWSTLGFKGSC [TRF25]

- Rank -- prewash (Transferrin [1]): 61
- Rank - non-prewash (Transferrin [1]): 711
Substance: HAYKGPGDMRRFNHSGMGSC [TRF22]

- Rank -- prewash (Transferrin [1]): 5
- Rank - non-prewash (Transferrin [1]): 84
- Kd (Transferrin [2]): ~60 µM
Substance: QYHHFMNLKRQGRAQAYGSC [TRF21]

- Rank -- prewash (Transferrin [1]): 9601
- Rank - non-prewash (Transferrin [1]): 5010
- Rank - non-prewash (Transferrin [1]; listed as TRF-19): 5,010
- Kd (Transferrin [2]): ~150 µM
Substance: KEDNPGYSSEQDYNKLDGSC [TRF19]

- Rank -- prewash (Transferrin [1]): 3325
- Rank - non-prewash (Transferrin [1]): 1289
Substance: LDPLFNTSIMVNWHRWMGSC [TRF27]

Substance: TNF2-TNF3-KC-stBu: lysine-linked synbody (peptide 1 SMKMVQPGHLLISYGHQGSGKC(StBu); peptide 2 RTTEMPFVFALGSVHPGGSG; not fully specified)
- MALDI peak in TNF-α tip elution (retention by target) [3]: showed a peak

- Binding ΔG (observed) (TNF-α): -5.21 ± 0.07 kcal/mol
Substance: FERDPLMMPWSFLQSRQGSC [TNF1]

- Kd (Transferrin [4]): 150 µM
Substance: GHKVVPQRQMRHAYNRNGSC [TBPL025]

- Kd (Transferrin [4]): 150 µM
Substance: GHKVVPQRQIRHAYNRYGSC [TBPL005]

- fold improvement of affinity in comparison to TRF26 (Transferrin [4]): more than 10 fold
- Kd (Transferrin [4]): 11.6 µM
Substance: AHKVVPQRQMRHAYSRYGSC [TBPM023]

- Component Binding ΔG Contribution (TNF-α): -0.82 ± 0.13 kcal/mol
- Kd Fold-Change Relative to Lead (TNF-α): 3.9 ± 0.9
- Kd (TNF-α; [5]): 40 ± 7.2 µM
- Binding ΔG (observed) (TNF-α): -6.03 ± -.10 kcal/mol
Substance: FERDPLMMPWKFLQSRQGSC [Synbody S11K]

- Rank -- prewash (Transferrin [1]): 289
- Rank - non-prewash (Transferrin [1]): 18
Substance: GQTQFAMHRFQQWYKIKGSC [TRF20]

- Component Binding ΔG Contribution (TNF-α): -0.74 ± 0.10 kcal/mol
- Kd Fold-Change Relative to Lead (TNF-α): 3.6 ± 0.6
- Kd (TNF-α; [5]): 44 ± 4.8 µM
- Binding ΔG (observed) (TNF-α): -5.95 ± 0.06 kcal/mol
Substance: FERYPLMMPWSFLQSRQGSC [Synbody D4Y]

- Rank -- prewash (Transferrin [1]): 958
- Rank - non-prewash (Transferrin [1]): 71
- Kd (Transferrin [2]): ~50 µM
Substance: SVKPWRPLITGNRWLNSGSC [TRF24]

- Kd Fold-Change Relative to Lead (TNF-α): 23 ± 3.2
- observed binding energy difference to the D4S+P5Y+M7K+S11K quadruple mutant (TNF-α): -0.94 ± 0.12 kcal/mol
- Kd (TNF-α; [5]): 7 ± 0.5 µM
- Binding ΔG (observed) (TNF-α): -7.03 ± 0.04 kcal/mol
- Kd (TNF-α; [6]): 2.8 to 5.3 µM
- Predicted Binding ΔG (TNF-α): -7.38 ± 0.19 kcal/mol
Substance: FERSYLMMPWKFLQSRQGSC [D4S + P5Y + S11K]

- Kd Fold-Change Relative to Lead (TNF-α): 9.4 ± 1.6
- Kd (TNF-α; [5]): 17 ± 1.9 µM
- Binding ΔG (observed) (TNF-α): -6.54 ± 0.07 kcal/mol
- Kd (TNF-α; [6]): 8.5 to 20 µM
- Predicted Binding ΔG (TNF-α): -6.66 ± 0.25 kcal/mol
Substance: FERYPLKMPWSFLQSRQGSC [D4Y + M7K]

- Kd Fold-Change Relative to Lead (TNF-α): 17 ± 2.5
- Kd (TNF-α; [5]): 9.3 ± 0.7 µM
- Binding ΔG (observed) (TNF-α): -6.67 ± 0.05 kcal/mol
- Kd (TNF-α; [6]): 8 to 15 µM
Substance: FERYPLMMPWKFLQSRQGSC [D4Y + S11K]
